Assay results taken from PMC6675120, “Potent and selective inhibitors for M32 metallocarboxypeptidases identified from high-throughput screening of anti-kinetoplastid chemical boxes” (PLoS Neglected Tropical Diseases, 2019).
Like-named read-outs stand apart in the source and are kept apart here.

Key:
T. cruzi = system: T. cruzi; design: method as in https://pubchem.ncbi.nlm.nih.gov/compound/91800813; conditions: ref https://pubchem.ncbi.nlm.nih.gov/compound/91800813; cited from earlier work
TcMCP-1 = TcMCP-1 (Trypanosoma cruzi, UniProt Q6ZXC0); assay: Continuous fluorogenic (FRET) TcMCP-1 assay with Abz-LKFK(Dnp)-OH, primary and secondary screening; assay type: biochemical; design: inhibition: dose or concentration left out as unconfirmed
Chain of TcMCP-1 (Q6ZXC0 entry or part of it): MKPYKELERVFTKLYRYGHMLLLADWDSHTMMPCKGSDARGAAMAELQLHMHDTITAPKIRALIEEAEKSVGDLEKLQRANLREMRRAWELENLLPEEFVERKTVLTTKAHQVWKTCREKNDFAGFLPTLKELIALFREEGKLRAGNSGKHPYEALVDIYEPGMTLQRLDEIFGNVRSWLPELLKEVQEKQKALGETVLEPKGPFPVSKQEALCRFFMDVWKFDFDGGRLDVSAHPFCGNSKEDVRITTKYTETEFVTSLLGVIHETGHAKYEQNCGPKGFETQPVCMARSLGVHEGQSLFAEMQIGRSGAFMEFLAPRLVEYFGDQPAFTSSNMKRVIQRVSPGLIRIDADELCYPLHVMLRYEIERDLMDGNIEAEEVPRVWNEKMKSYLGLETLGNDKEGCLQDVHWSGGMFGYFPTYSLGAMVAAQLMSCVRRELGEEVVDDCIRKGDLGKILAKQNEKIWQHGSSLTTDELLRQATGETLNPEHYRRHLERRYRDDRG
Experimental: TcMCP-1 (MEROPS ID: M32.003) and TbMCP-1 were expressed as GST fusion proteins in E. coli BL21 (DE3) Codon Plus and purified as previously described.
TbMCP-1 and TcMCP-1 activities were assayed fluorometrically with Abz-RFFK(Dnp)-OH and Abz-LKFK(Dnp)-OH substrates, respectively, in 100 mM MOPS pH 7,2 containing 0,01% Triton X-100. Assays were performed in solid black 384-well plates (final reaction volume ~80 μL) and the hydrolysis of the K(Dnp)-OH group was monitored continuously at 30 °C with a Beckman Coulter DTX 880 Multimode Reader (Radnor, Pennsylvania, USA) using standard 320 nm excitation and 420 nm emission filter set.
In all cases, EDTA (final concentration 31,25 mM) was used as positive inhibition control.
Then, 40 μL of 100 mM MOPS, 0,01% Triton X-100 pH 7,2 containing TbMCP-1 (2,50 nM) or TcMCP-1 (0,34 nM) were added to each well, plates were homogenized (30 seg, orbital, medium intensity) and each well subjected to a single autofluorescence read (ex/em = 320/420 nm). Plates were incubated in darkness for 15 min at 30 °C and then 40 μL of Abz-RFFK(Dnp)-OH (4 μM) or Abz-LKFK(Dnp)-OH (0,8 μM) in assay buffer were added to each well to start the reaction. After homogenization (30 seg, orbital, medium intensity), the fluorescence of the Abz group (ortho-aminobenzoic acid) (ex/em = 320/420 nm) was acquired kinetically for each well (8 read cycles, one cycle every 300 seconds). Considering our previous experiences, the auto-fluorescent cut-off was arbitrarily set at 2x10^5 RFU to discard highly interfering compounds. All compounds were assayed in singlet (without replicates) due to the limited availability of stocks.
Raw screening measurements were used to determine the slope (dF/dt) of progression curves by linear regression for control and non-interfering compound wells. In the case of control-dependent hit selection criteria, percent inhibition percentage (%Inh) was calculated for each compound according to the following equation: Inh=100∙[1−(dF/dt^WELL−μ^C−)/(μ^C+−μ^C−)] (1) where dF/dt^WELL represents the slope of each compound well and μ^C+ and μ^C− the average of MCP (no-inhibition) and substrate (no-enzyme) controls, respectively.
Compounds selected from primary screening were re-tested in a dose-response manner (final concentration ranging from […] to 62,5 μM) using identical assay conditions. To avoid any positional and/or association bias, we randomly defined the row position for each compound. One μL of compounds stock (10 mM in DMSO) and EDTA (31,25 mM) were added to the first well of column 1, followed by addition of 40 μL of 100 mM MOPS, 0,01% Triton X-100 pH 7,2 buffer. After addition of 20 μL of the same buffer to subsequent wells of the plate, 22 serial 2-fold dilutions were made horizontally. The last two positions of every row were used, alternatively, for C^+ and C^− controls to reduce any positional and/or association bias. Then, 20 μL of activity buffer containing TbMCP-1 or TcMCP-1 were added to each well, except for those corresponding to C^−; completed with 20 μL of activity buffer. After homogenization, 15 minutes of incubation at 30°C and autofluorescence measurement, the substrate (in activity buffer) was added to the previous mix. Data collection and processing were performed exactly as described above. Percentage of M32 MCPs residual activity was calculated for each condition according to the following equation: %Res.Act^MCP=100∙[(dF/dt^WELL−μ^C−)/(μ^C+−μ^C−)] (2) where dF/dt^WELL represents the slope of each compound well and μ^C+ and μ^C− the average of MCP (no-inhibition) and substrate (no-enzyme) controls, respectively.

HepG2 = system: HepG2; design: method as in https://pubchem.ncbi.nlm.nih.gov/compound/91800813; conditions: ref https://pubchem.ncbi.nlm.nih.gov/compound/91800813, read-out: cytotoxicity IC50; cited from earlier work

In the case of `N#Cc1ccc(S(=O)(=O)N2CCN(Cc3cccc(-c4ccncc4)c3)CC2)cc1` [TCMDC-143620], the “activity against T. cruzi in culture” value (T. cruzi) is given as “potent activity”, the IC50 (TcMCP-1) is given as 0.694 µM and the “TcMCP-1 Hill Slope” value (TcMCP-1; four-parameter Hill fit of dose-response curve) is given as -1,06. For the same compound, the inhibition (TcMCP-1; read-out: TcMCP-1 Secondary screening Inhibition (%)) was 96.7%, the “TcMCP-1 2º/1º ratio” value (TcMCP-1; secondary (31,5 µM) / primary (25 µM) inhibition) was 1,18 and the IC50 (TcMCP-1; secondary screening, two-fold dilutions 7,5 pM to 62,5 μM, KM/[S] ~ 1, no replicates) was ≤ 10 µM. For the same compound, the inhibition at 25 µM (TcMCP-1; single inhibitor concentration 25 µM) was 82.1% and the IC50 (HepG2) was > 100 µM.
